We go through 3 compounds from patent US8586752B1, “Crystalline S-omeprazole strontium hydrate, method for preparing same, and pharmaceutical composition containing same” (Hanmi Science Co., Ltd, priority 2005, dated 2013).

One data set is described as follows: Water-solubility test. Format: physicochemical. The following applies: for Solubility: deionized water to saturation, 25° C., HPLC condition A; for Saturation pH: saturated solution in deionized water. The protocol:
The S-omeprazole strontium tetrahydrate of the present invention and the S-omeprazole magnesium trihydrate were each dissolved in deionized water to saturation. The water-solubility of each of the saturated solutions was analyzed by HPLC under the previously described condition A and the amount of each salt hydrate dissolved was measured.

Another data set is described as follows: Hygroscopicity test. Format: physicochemical. The note with it: for Moisture content: exposed. As for the experimental part:
The inventive S-omeprazole strontium was exposed in the naked state at 25 to 40° C. and 40 to 90% relative humidity for a period of over 15 days. The moisture contents of the inventive salt measured with a Karl-Fisher titrator at storage time 0, 3, 7 and 15 days are shown in Table 4.

Data set [1] can be described thus: Storage stability under long-term, accelerated aging and stressed conditions. Format: physicochemical. The note with it: 25° C./60% RH exposed; 40° C./75% RH exposed; 60° C./75% RH closed; 2 to 4 weeks.
A short description of data set [2]: Heat stability test of the inventive salt. Format: physicochemical. The following applies: for Amount of titrated S-omeprazole: sealed, 60° C. and 75% relative humidity. As for the experimental part:
The salt of Example 1 was stored in the sealed state under a stressed condition of 60° C. and 75% relative humidity, and the remaining amounts of active S-omeprazole after 7, 14, 21 and 28 days were measured by HPLC condition A. The results are shown in Table 5.

A further data set deals with rats. The following applies: dose of 633 mg/kg/day; cited from earlier work.

Where two headings read alike, the source gives them in different places.

On to `COc1ccc2[n-]c([S+]([O-])Cc3ncc(C)c(OC)c3C)nc2c1.COc1ccc2[n-]c([S+]([O-])Cc3ncc(C)c(OC)c3C)nc2c1.O.O.O.[Mg+2]` (centres unmarked) [Magnesium trihydrate, S-Omeprazole Magnesium Trihydrate, reference compound], for which, in the data set “Water-solubility test”, the Solubility came to 1.5 mg/mL and the “Saturation pH” value worked out at 9.9.

For the compound `COc1ccc2nc([S@@+]([O-])Cc3ncc(C)c(OC)c3C)[nH]c2c1` [S-omeprazole strontium tetrahydrate, S-omerprazole strontium tetrahydrate], the Solubility in “Water-solubility test” (25 °C, water, thermodynamic from solid, read-out: Solubility) was approximately 17.6 mg/mL; in “Water-solubility test”, 17.6 mg/mL. For the same compound, in the data set “Water-solubility test”, the “Saturation pH” value came to 10.2. In addition, the “Water solubility relative to S-omeprazole magnesium trihydrate” value in “Water-solubility test” (times higher than S-omeprazole magnesium trihydrate) is given as “at least 10 times”. Further, the Moisture content in “Hygroscopicity test” (40% relative humidity (25° C.), 0 day) worked out at 9.0 wt %; in “Hygroscopicity test” (40% relative humidity (25° C.), 3 days), 8.9 wt %; in “Hygroscopicity test” (40% relative humidity (25° C.), 7 days) it was 8.7 wt %; in “Hygroscopicity test” (40% relative humidity (25° C.), 15 days), 8.8 wt %; in “Hygroscopicity test” (60% relative humidity (25° C.), 0 day), 9.0 wt %; in the data set “Hygroscopicity test” (60% relative humidity (25° C.), 3 days), 9.0 wt %. The Moisture content in the data set “Hygroscopicity test” (60% relative humidity (25° C.), 7 days) was 9.2 wt %; in the data set “Hygroscopicity test” (60% relative humidity (25° C.), 15 days), 9.1 wt %; in “Hygroscopicity test” (75% relative humidity (40° C.), 0 day), 9.0 wt %; in “Hygroscopicity test” (75% relative humidity (40° C.), 3 days), 8.9 wt %; in the data set “Hygroscopicity test” (75% relative humidity (40° C.), 7 days), 9.0 wt %; in the data set “Hygroscopicity test” (75% relative humidity (40° C.), 15 days) it was 8.9 wt %. The Moisture content in “Hygroscopicity test” (90% relative humidity (35° C.), 0 day) was 9.0 wt %; in the data set “Hygroscopicity test” (90% relative humidity (35° C.), 3 days), 9.2 wt %; in “Hygroscopicity test” (90% relative humidity (35° C.), 7 days) it was 9.3 wt %; in “Hygroscopicity test” (90% relative humidity (35° C.), 15 days) it was 9.2 wt %. In addition, the Hygroscopicity result in the data set “Hygroscopicity test” (under a highly humid condition) is “less hygroscopic”. For the same compound, in the data set “Hygroscopicity test” (under a low humidity condition), the Initial moisture content result is reported as “maintained”. The Stability on storage entry in data set [1] was “maintain the initial moisture content, purity and crystallinity”. For the same compound, the “Amount of titrated S-omeprazole” value in data set [2] (7 days) came out at 997 µg/mg; in data set [2] (14 days), 998 µg/mg; in data set [2] (21 days), 997 µg/mg; in data set [2] (28 days) it was 997 µg/mg; in data set [2] (Initial), 997 µg/mg. Moreover, the Heat stability result in data set [2] (summary of Table 5 (60° C., 75% relative humidity, sealed, up to 28 days)) is listed as “highly stable”.

As for `[Sr+2]` [strontium, Strontium], the Safety entry in the data set with rats is listed as “no safety problems”.
